Assay results from PubChem BioAssay AID248 (DTP/NCI, 2004).
Several values for one entry are separate records, joined by “and”; a condition that tells them apart may be missing. Identical values can stand only once. Inconclusive results and toxic doses are left out. No stated cut-off is given here; in the data, active means T/C of 150% or more; inactive means T/C below 125%.

Tested on: L1210 leukemia ip in BDF1 mice, survival T/C
Assay: NCI In Vivo Anticancer Drug Screen. Data for tumor model L1210 Leukemia (intraperitoneal) in B6D2F1 (BDF1) mice
Conditions: endpoint: mean survival time, higher = longer survival
Summary of the method: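 Tumor cells were implanted, animals were treated, and survival was followed. The result divides the treated measurement by the vehicle-control measurement.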

[1] = dose: 12.5 mg/kg/injection, schedule: Q01DX009 (ip), vehicle: saline with Tween-80
[2] = dose: 25.0 mg/kg/injection, schedule: Q01DX009 (ip), vehicle: saline with Tween-80
[3] = dose: 50.0 mg/kg/injection, schedule: Q01DX009 (ip), vehicle: saline with Tween-80
[4] = dose: 100.0 mg/kg/injection, schedule: Q01DX009 (ip), vehicle: saline with Tween-80
[5] = dose: 100.0 mg/kg/injection, schedule: Q04DX003 (ip), vehicle: Klucel (hydroxypropylcellulose) (HPC)
[6] = dose: 200.0 mg/kg/injection, schedule: Q01DX009 (ip), vehicle: saline with Tween-80
[7] = dose: 100.0 mg/kg/injection, schedule: Q01DX009 (ip), vehicle: Klucel (hydroxypropylcellulose) (HPC)
[8] = dose: 200.0 mg/kg/injection, schedule: Q01DX009 (ip), vehicle: Klucel (hydroxypropylcellulose) (HPC)
[9] = dose: 200.0 mg/kg/injection, schedule: Q04DX003 (ip), vehicle: Klucel (hydroxypropylcellulose) (HPC)
[10] = dose: 400.0 mg/kg/injection, schedule: Q01DX009 (ip), vehicle: Klucel (hydroxypropylcellulose) (HPC)
[11] = dose: 400.0 mg/kg/injection, schedule: Q04DX003 (ip), vehicle: Klucel (hydroxypropylcellulose) (HPC)
[12] = dose: 100.0 mg/kg/injection, schedule: Q04DX003 (ip), vehicle: saline with Tween-80
[13] = dose: 400.0 mg/kg/injection, schedule: Q01DX009 (ip), vehicle: saline with Tween-80
[14] = dose: 100.0 mg/kg/injection, schedule: Q01DX001 (ip), vehicle: carboxymethylcellulose (CMC)
[15] = dose: 200.0 mg/kg/injection, schedule: Q01DX001 (ip), vehicle: carboxymethylcellulose (CMC)
[16] = dose: 400.0 mg/kg/injection, schedule: Q01DX001 (ip), vehicle: carboxymethylcellulose (CMC)
[17] = dose: 100.0 mg/kg/injection, schedule: Q01DX001 (ip), vehicle: saline
[18] = dose: 200.0 mg/kg/injection, schedule: Q01DX001 (ip), vehicle: saline
[19] = dose: 400.0 mg/kg/injection, schedule: Q01DX001 (ip), vehicle: saline
[20] = dose: 50.0 mg/kg/injection, schedule: Q01DX001 (ip), vehicle: carboxymethylcellulose (CMC)
[21] = dose: 100.0 mg/kg/injection, schedule: Q04DX002 (ip), vehicle: saline with Tween-80
[22] = dose: 200.0 mg/kg/injection, schedule: Q04DX002 (ip), vehicle: saline with Tween-80
[23] = dose: 100.0 mg/kg/injection, schedule: Q01DX009 (ip), vehicle: saline
[24] = dose: 200.0 mg/kg/injection, schedule: Q01DX009 (ip), vehicle: saline

Measured: T/C

CCOC(=O)NNC(=O)OCC
inactive: [1] 100 % of control | [2] 97 % of control | dose: 25.0 mg/kg/injection, schedule: Q04DX003 (ip), vehicle: Klucel (hydroxypropylcellulose) (HPC) 97 % of control | [3] 96 % of control and 86 % of control | dose: 50.0 mg/kg/injection, schedule: Q04DX003 (ip), vehicle: Klucel (hydroxypropylcellulose) (HPC) 98 % of control | dose: 75.0 mg/kg/injection, schedule: Q01DX001 (ip), vehicle: acetone 97 % of control | [4] 92 % of control | [5] 91 % of control | dose: 150.0 mg/kg/injection, schedule: Q01DX001 (ip), vehicle: acetone 108 % of control

CC(=O)OC1(c2ccc(Cl)cc2)OC(=O)C(c2ccccc2)=C1Cc1ccccc1 (stereo unspecified)
inactive: [1] 93 % of control | [2] 86 % of control | [3] 86 % of control | [6] 95 % of control

CCCCCNC(=O)CCC
inactive: [7] 108 % of control | [5] 96 % of control | [8] 108 % of control | [9] 107 % of control | [10] 106 % of control | [11] 95 % of control

CC(=O)OCC(Cl)C(Cl)CCl (stereo unspecified)
inactive: [5] 96 % of control | [9] 95 % of control | [11] 95 % of control

Cc1cc([N+](=O)[O-])cc(C)c1C
inactive: [5] 98 % of control | [9] 102 % of control | [11] 107 % of control

CN(C)CCN(C)/N=N/c1nc[nH]c1C(N)=O
inactive: dose: 100.0 mg/kg/injection, schedule: Q01DX001 (ip), vehicle: saline with Tween-80 101 % of control | [4] 108 % of control | [12] 108 % of control | dose: 200.0 mg/kg/injection, schedule: Q01DX001 (ip), vehicle: saline with Tween-80 95 % of control | [6] 100 % of control | dose: 200.0 mg/kg/injection, schedule: Q04DX003 (ip), vehicle: saline with Tween-80 113 % of control | dose: 400.0 mg/kg/injection, schedule: Q01DX001 (ip), vehicle: saline with Tween-80 110 % of control | [13] 95 % of control | dose: 400.0 mg/kg/injection, schedule: Q04DX003 (ip), vehicle: saline with Tween-80 106 % of control

Cc1ccc2[nH]c(=S)n(-c3cccc(C(F)(F)F)c3)c(=O)c2c1
inactive: [7] 96 % of control | [8] 104 % of control | [10] 100 % of control

C/C=C/C1CC2CC(C1C)C2(C)C (stereo unspecified)
inactive: [3] 97 % of control | [4] 97 % of control | [6] 101 % of control

O=C(N=C1SCCS1)Nc1cccc(Cl)c1
inactive: dose: 100.0 mg/kg/injection, schedule: Q04DX002 (ip), vehicle: Klucel (hydroxypropylcellulose) (HPC) 100 % of control | dose: 200.0 mg/kg/injection, schedule: Q04DX002 (ip), vehicle: Klucel (hydroxypropylcellulose) (HPC) 95 % of control | dose: 400.0 mg/kg/injection, schedule: Q04DX002 (ip), vehicle: Klucel (hydroxypropylcellulose) (HPC) 110 % of control

Cc1sc(Cc2ccccc2)nc1-c1ccc(N=Cc2ccc(N(CCCl)CCCl)cc2)cc1
inactive: [14] 104 % of control | [15] 98 % of control | [16] 95 % of control

CCCCC(=O)N/N=C/c1c(O)ccc2ccccc12
inactive: [17] 94 % of control | [18] 94 % of control | [19] 92 % of control

Cc1ccc(NC(=O)c2ccccc2Cl)cc1C
inactive: [4] 90 % of control | [6] 97 % of control | [13] 104 % of control

Cc1cn(C2OC(CO)C(O)C(O)C2N)c(=O)[nH]c1=O (stereo unspecified)
inactive: dose: 50.0 mg/kg/injection, schedule: Q01DX001 (ip), vehicle: saline 107 % of control | [17] 97 % of control and 103 % of control | [18] 97 % of control and 108 % of control | [19] 103 % of control and 105 % of control

CCN(CC)CCN(C(=S)Nc1ccccc1)c1ccccc1
inactive: dose: 25.0 mg/kg/injection, schedule: Q01DX009 (ip), vehicle: Klucel (hydroxypropylcellulose) (HPC) 103 % of control | dose: 50.0 mg/kg/injection, schedule: Q01DX009 (ip), vehicle: Klucel (hydroxypropylcellulose) (HPC) 102 % of control | [7] 96 % of control

COc1cc(C)cccc1=O
inactive: [20] 107 % of control | [14] 107 % of control | [15] 96 % of control | [16] 98 % of control

ClC1=C(Cl)C2CCC1C2
inactive: [2] 88 % of control | [3] 98 % of control | dose: 100.0 mg/kg/injection, schedule: Q01DX005 (ip), vehicle: saline with Tween-80 96 % of control | [4] 94 % of control and 98 % of control | [21] 100 % of control | dose: 200.0 mg/kg/injection, schedule: Q01DX005 (ip), vehicle: saline with Tween-80 92 % of control | [22] 100 % of control | dose: 400.0 mg/kg/injection, schedule: Q01DX005 (ip), vehicle: saline with Tween-80 101 % of control

CN(C)CCCN1Cc2ccccc2Cc2ccccc21
inactive: dose: 6.25 mg/kg/injection, schedule: Q01DX009 (ip), vehicle: saline 106 % of control | dose: 12.5 mg/kg/injection, schedule: Q01DX009 (ip), vehicle: saline 88 % of control | dose: 25.0 mg/kg/injection, schedule: Q01DX009 (ip), vehicle: saline 97 % of control | dose: 25.0 mg/kg/injection, schedule: Q04DX003 (ip), vehicle: saline 97 % of control | dose: 50.0 mg/kg/injection, schedule: Q01DX009 (ip), vehicle: saline 104 % of control | dose: 50.0 mg/kg/injection, schedule: Q04DX003 (ip), vehicle: saline 108 % of control | [23] 100 % of control | dose: 100.0 mg/kg/injection, schedule: Q04DX003 (ip), vehicle: saline 108 % of control

CCCCCCOB(OCCCCCC)OCCCCCC
inactive: [20] 107 % of control | dose: 88.0 mg/kg/injection, schedule: Q01DX001 (ip), vehicle: carboxymethylcellulose (CMC) 97 % of control and 98 % of control | [14] 102 % of control | dose: 133.0 mg/kg/injection, schedule: Q01DX001 (ip), vehicle: carboxymethylcellulose (CMC) 96 % of control and 103 % of control | dose: 300.0 mg/kg/injection, schedule: Q01DX001 (ip), vehicle: carboxymethylcellulose (CMC) 93 % of control and 94 % of control | [16] 105 % of control

Cc1ccc(Cl)cc1NS(=O)(=O)c1cc(Cl)c(Cl)cc1Cl
inactive: [7] 93 % of control | [8] 89 % of control | [10] 94 % of control

O=CN(N=O)c1ccc(Br)cc1
inactive: dose: 75.0 mg/kg/injection, schedule: Q01DX001 (ip), vehicle: other 96 % of control | dose: 150.0 mg/kg/injection, schedule: Q01DX001 (ip), vehicle: other 101 % of control | dose: 300.0 mg/kg/injection, schedule: Q01DX001 (ip), vehicle: other 103 % of control

CCOC(O)(C=O)C1CCCN1 (stereo unspecified)
inactive: [17] 100 % of control | [23] 104 % of control | [18] 97 % of control | [24] 101 % of control | [19] 97 % of control | dose: 400.0 mg/kg/injection, schedule: Q01DX009 (ip), vehicle: saline 95 % of control

CCN(CC)CCCNC(C)=O
inactive: [23] 96 % of control | [24] 98 % of control

CCOC(=O)c1ccc(NC(=S)Nc2ncccc2C)cc1
inactive: [21] 103 % of control | [22] 103 % of control | dose: 400.0 mg/kg/injection, schedule: Q04DX002 (ip), vehicle: saline with Tween-80 95 % of control

CCCCCCC1N(C)CCCN1C
inactive: [2] 98 % of control | dose: 25.0 mg/kg/injection, schedule: Q04DX003 (ip), vehicle: saline with Tween-80 100 % of control | [3] 94 % of control | dose: 50.0 mg/kg/injection, schedule: Q04DX003 (ip), vehicle: saline with Tween-80 98 % of control | [4] 86 % of control | [12] 100 % of control and 103 % of control

Brc1ccccc1Nn1c2ccccc2c2ccccc21
inactive: [7] 103 % of control | [8] 95 % of control | [10] 103 % of control
